Results: patent US7674594B2, “Screening assay for inhibitors of TRPA1 activation by a lower alkyl phenol” (Redpoint Bio Corporation, priority 2006, dated 2010)
Entries after “also recorded” stand apart in the source; their conditions may differ.

What was measured:
[1] = molecular target: T1, hTRPA1 (Homo sapiens, UniProt O75762); assay: Membrane potential dye fluorescence assay (FLIPR/FLEXstation), activation of hTRPA1 in transfected HEK293 cells; assay type: cell-based; conditions: for EC50: HEK293 cells stably transfected with hTRPA1, FMP dye, FLIPR; for TRPA1 activation / agonist activity (in words): hTRPA1 HEK293 cells, increase in fluorescence of membrane potential dye
T1 construct: The full length hTRPA1 was amplified by PCR with Kpn1 and Xho1 restriction enzyme sites; expressed in transfected cells; also transient transfection
T1 sequence (O75762 whole entry): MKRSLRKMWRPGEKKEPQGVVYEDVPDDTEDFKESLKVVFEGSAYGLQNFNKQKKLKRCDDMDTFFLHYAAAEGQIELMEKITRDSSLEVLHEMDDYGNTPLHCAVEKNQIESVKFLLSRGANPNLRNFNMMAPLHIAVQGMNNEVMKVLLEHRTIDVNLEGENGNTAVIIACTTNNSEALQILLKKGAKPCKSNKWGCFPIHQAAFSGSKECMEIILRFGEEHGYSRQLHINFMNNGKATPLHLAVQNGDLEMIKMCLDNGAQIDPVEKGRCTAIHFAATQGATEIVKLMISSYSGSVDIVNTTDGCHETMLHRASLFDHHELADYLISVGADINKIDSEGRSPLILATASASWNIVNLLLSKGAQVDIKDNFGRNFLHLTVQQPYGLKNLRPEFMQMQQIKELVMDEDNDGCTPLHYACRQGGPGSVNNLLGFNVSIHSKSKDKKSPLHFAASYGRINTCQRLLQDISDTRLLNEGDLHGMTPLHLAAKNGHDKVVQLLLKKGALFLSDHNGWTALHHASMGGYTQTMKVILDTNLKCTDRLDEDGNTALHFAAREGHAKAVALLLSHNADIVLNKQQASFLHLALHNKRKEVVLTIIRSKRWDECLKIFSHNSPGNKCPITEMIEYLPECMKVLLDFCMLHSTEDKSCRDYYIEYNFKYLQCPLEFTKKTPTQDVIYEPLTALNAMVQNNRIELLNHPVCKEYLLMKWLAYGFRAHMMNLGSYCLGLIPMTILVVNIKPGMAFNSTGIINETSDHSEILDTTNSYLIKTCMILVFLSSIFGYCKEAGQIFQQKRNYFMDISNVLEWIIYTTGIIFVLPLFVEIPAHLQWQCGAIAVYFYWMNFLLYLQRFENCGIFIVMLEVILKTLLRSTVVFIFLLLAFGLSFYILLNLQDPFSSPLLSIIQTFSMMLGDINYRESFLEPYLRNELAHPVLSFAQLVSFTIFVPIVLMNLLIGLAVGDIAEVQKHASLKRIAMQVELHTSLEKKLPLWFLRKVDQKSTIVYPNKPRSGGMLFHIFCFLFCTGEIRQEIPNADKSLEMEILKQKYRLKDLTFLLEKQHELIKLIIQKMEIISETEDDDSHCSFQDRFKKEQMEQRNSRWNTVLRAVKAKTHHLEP
Experimental: Once expression of TRPA1 was confirmed, 100 μl of the Blue or Red FMP dye (Molecular Devices) was added to each well of plates seeded with the transiently transfected cells. The plate was then incubated in a 37° C./5% CO2 incubator for 1 hour. The plate was read in a FLEXStation microplate reader (Molecular Devices) with an excitation of 530 nm and an emission of 565 nm. The fluorescence was monitored for 3 minutes upon exposure of the cells to a TRPA1 activating agent (e.g., cinnamaldehyde).
(§1) Samples in a 384-well plate were evaluated in a 5 minute assay on the FLIPR-Tetra™ (Molecular Devices). The assay was performed on a FLIPR™ using the excitation 510-545 nm and emission 565-625 nm filter sets. TRPA1-Transfected HEK cells, 15,000/well, were seeded overnight on poly-D-lysine coated 384 well plates in 20 μl media. Membrane Potential Assay Dye Red (Molecular Devices), 20 μl/well, was added and the plates incubated for 1 hour in a 37° C. and 5% CO2 incubator. The plates were then removed from the incubator and equilibrated to room temperature for 15 minutes before reading on the FLIPR®. The plates were read on the FLIPR® for a total of 3 minutes. Baseline fluorescence was obtained on the FLIPR® for 10 seconds followed by addition (typically 10 μl) of each agonist by the FLIPR® and read for an additional 2 minutes and 50 seconds.

[2] = system: parental HEK293 cells; assay: Membrane potential dye fluorescence assay in parental (non-transfected) HEK293 cells; assay type: cell-based, human; conditions: cells not expressing TRPA1
[3] = molecular target: T2, hTRPV1 (Homo sapiens, UniProt Q8NER1); assay: Membrane potential dye fluorescence assay, HEK293 cells expressing hTRPV1; assay type: cell-based; conditions: HEK293, increasing concentrations, FIG. 6
T2 construct: expressed in transfected cells
T2 sequence (Q8NER1 whole entry): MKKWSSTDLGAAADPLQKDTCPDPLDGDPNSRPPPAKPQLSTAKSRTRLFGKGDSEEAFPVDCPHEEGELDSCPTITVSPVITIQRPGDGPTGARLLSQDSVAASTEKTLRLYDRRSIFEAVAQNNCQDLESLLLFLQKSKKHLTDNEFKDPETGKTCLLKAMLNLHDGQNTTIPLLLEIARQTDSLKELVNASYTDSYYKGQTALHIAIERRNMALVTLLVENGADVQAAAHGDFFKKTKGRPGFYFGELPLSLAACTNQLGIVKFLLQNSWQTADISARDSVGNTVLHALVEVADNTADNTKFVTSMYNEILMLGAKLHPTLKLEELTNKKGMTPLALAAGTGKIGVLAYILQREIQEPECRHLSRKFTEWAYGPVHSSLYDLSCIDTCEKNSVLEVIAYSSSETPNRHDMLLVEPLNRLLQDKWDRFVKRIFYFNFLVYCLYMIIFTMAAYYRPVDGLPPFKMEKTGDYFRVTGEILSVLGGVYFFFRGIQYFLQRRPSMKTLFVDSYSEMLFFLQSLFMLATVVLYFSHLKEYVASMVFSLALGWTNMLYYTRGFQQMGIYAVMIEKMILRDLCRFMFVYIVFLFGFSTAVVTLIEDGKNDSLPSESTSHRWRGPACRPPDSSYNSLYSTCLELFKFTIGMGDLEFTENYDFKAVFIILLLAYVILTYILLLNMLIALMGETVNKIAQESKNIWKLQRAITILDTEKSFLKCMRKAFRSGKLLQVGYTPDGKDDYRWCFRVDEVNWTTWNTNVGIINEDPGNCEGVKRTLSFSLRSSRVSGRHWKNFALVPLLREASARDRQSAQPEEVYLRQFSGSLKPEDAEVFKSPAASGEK
Experimental: as §1
(§2) HEK293 cells were stably transfected with one of hTRPA1, hTRPV1 or hTRPM5. CHO cells were stably transfected with one of hTRPM4B or TRPM5. Parental HEK293 and CHO cells were also used as a negative control.

[4] = molecular target: T3, hTRPM4B (Homo sapiens, UniProt Q8TD43); assay: Membrane potential dye fluorescence assay, CHO cells expressing hTRPM4B; assay type: cell-based; conditions: CHO, increasing concentrations, FIG. 6
T3 construct: expressed in transfected cells
T3 sequence (Q8TD43 whole entry): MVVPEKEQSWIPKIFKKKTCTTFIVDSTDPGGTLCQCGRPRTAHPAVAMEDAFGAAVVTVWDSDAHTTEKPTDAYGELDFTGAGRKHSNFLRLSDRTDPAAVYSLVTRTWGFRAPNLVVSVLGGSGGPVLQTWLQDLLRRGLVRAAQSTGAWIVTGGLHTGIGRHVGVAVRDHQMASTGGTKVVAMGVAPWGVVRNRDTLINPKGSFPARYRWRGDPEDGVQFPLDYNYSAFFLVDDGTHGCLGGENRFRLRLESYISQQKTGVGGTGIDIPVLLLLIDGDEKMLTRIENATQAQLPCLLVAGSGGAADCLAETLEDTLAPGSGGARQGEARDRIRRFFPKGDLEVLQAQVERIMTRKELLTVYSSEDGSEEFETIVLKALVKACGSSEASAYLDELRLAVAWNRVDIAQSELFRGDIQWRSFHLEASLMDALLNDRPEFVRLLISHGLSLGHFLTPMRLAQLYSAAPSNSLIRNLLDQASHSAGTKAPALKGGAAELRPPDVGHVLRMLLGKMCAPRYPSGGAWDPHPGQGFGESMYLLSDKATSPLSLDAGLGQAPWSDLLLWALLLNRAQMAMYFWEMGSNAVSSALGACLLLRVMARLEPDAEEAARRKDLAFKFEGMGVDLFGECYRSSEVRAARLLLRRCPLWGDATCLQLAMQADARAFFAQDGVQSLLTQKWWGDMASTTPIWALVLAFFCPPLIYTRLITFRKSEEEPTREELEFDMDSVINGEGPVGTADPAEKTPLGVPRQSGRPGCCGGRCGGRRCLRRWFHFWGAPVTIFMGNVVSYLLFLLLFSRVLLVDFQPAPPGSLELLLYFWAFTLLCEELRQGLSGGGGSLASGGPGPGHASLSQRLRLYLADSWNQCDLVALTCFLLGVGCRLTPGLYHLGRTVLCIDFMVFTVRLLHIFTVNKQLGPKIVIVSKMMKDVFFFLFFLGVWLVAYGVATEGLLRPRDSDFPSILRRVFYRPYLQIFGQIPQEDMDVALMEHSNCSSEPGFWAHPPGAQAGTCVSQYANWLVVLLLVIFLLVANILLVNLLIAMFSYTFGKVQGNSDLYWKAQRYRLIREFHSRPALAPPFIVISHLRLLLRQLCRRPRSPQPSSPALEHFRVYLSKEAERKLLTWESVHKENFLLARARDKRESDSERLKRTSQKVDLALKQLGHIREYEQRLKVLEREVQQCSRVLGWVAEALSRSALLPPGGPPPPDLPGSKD
Experimental: as §1, §2

[5] = molecular target: T4, hTRPM5 (Homo sapiens, UniProt Q9NZQ8); assay: Membrane potential dye fluorescence assay, HEK293 or CHO cells expressing hTRPM5; assay type: cell-based; conditions: increasing concentrations, FIG. 6
T4 construct: expressed in transfected cells
T4 sequence (Q9NZQ8 1-1165): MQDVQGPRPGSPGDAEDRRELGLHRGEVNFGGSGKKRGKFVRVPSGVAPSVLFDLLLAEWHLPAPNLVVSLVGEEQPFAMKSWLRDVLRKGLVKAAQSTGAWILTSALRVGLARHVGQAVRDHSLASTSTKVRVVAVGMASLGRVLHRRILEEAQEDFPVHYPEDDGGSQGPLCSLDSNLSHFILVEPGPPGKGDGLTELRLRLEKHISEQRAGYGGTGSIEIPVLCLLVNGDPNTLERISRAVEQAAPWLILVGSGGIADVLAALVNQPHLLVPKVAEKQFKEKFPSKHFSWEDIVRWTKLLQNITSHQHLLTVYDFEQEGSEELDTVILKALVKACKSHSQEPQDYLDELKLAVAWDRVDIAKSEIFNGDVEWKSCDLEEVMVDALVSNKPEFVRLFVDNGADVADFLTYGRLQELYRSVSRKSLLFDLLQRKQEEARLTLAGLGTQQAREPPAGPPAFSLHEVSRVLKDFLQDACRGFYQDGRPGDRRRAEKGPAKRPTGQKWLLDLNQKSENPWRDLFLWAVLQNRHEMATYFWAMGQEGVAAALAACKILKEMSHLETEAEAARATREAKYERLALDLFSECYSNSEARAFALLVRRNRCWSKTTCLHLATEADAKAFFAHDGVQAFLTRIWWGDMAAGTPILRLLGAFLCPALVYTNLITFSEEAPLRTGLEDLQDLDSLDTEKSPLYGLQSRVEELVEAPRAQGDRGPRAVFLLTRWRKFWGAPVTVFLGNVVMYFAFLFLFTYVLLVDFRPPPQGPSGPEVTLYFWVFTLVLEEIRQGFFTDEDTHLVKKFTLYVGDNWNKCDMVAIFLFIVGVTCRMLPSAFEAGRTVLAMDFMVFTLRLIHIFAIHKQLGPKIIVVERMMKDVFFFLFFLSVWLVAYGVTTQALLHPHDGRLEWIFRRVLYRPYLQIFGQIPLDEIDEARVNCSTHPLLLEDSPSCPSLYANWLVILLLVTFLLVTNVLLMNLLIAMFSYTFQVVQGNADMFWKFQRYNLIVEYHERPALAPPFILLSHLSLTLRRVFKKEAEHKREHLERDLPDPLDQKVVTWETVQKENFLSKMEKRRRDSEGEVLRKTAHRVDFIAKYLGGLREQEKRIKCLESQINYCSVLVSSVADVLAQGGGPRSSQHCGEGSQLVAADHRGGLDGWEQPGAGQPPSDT
Experimental: as §1, §2

[6] = molecular target: T1, hTRPA1; assay: Modulation of agonist-activated TRPA1 in HEK293 cells expressing hTRPA1 (membrane potential dye); assay type: cell-based; conditions: HEK293 cells
Experimental: as §1
Appropriate control experiments are performed and can easily be determined by the skilled artisan.
HEK293 cells and CHO cells expressing TRPA1 were subjected to the assay described in Example 2.

[7] = system: mice; assay: Taste aversion (lick) assay in mice; assay type: in vivo, mouse; conditions: mice, increasing concentrations
Experimental: In this assay, the ability of identified lower alkyl phenols to evoke taste aversion in mice was measured. Mice were exposed to increasing concentrations of lower alkyl phenols.

[8] = molecular target: T1, hTRPA1; assay: siRNA knockdown of hTRPA1 in hTRPA1 HEK293 cells, membrane potential dye response; assay type: cell-based; conditions: increasing concentrations
Experimental: HEK293 cells were transiently transfected with one of siRNA for hTRPA1, and one of Silencer pre-designed and validated siRNA (Ambion), GAPDH or negative siRNA control. 1×10^6 hTRPA1 stably transfected HEK 293 cells were plated in 35 mm dishes overnight. The next day 10 μM of each siRNA was transfected into these cells using siPORT Amine (Ambion) and incubated overnight. The following day, transfected cells were trypsinized and seeded into 384-well black, clear bottom, poly-D-lysine plates (Corning) at a density of 15,000 cells/well in a 20 μl volume and incubated in a 37° C./5% CO2 incubator overnight.
The cells were then loaded with membrane potential sensitive dye and subjected to the fluorescence assay described in Example 2.

Compound	EC50 [1] [µM]	TRPA1 activation / agonist activity (in words) [1]	response of parental HEK293 cells (in words) [2]	response of cells expressing hTRPV1 (in words) [3]	response of cells expressing hTRPM4B (in words) [4]	response of cells expressing hTRPM5 (in words) [5]	inhibition of thymol activated TRPA1 (in words) [6]	taste aversion, licks/trial (in words) [7]	fluorescence response of cells transfected with hTRPA1 siRNA versus GAPDH or negative siRNA control (in words) [8]
Cc1cccc(C)c1O [2,6-dimethylphenol]	66 ± 22	generated an increase in relative fluorescence	no response	did not generate the same increase in relative fluorescence	did not generate the same increase in relative fluorescence	did not generate the same increase in relative fluorescence	–	–	–
C=C(C)[C@H]1CC=C(C)CC1 [limonene]	–	are TRPA1 agonists; also recorded: have agonist activity	–	–	–	–	do not act as agonists of thymol activation of TRPA1	–	–
CC1(C)[C@@H]2C[C@H]1[C@@](C)(O)[C@@H](O)C2 [Pinanediol]	–	Neither isomer (+ shown) had a significant agonist activity until 10 mM	–	–	–	–	both inhibited TRPA1 activation at 1 mM	–	–
CC1(C(=O)O)CCC(C(=O)O)C1(C)C (stereo not shown) [camphoric acid]	–	are TRPA1 agonists; also recorded: have agonist activity	–	–	–	–	do not act as agonists of thymol activation of TRPA1	–	–
Cc1ccc(C)c(O)c1 [2,5-dimethylphenol]	52 ± 29	generated an increase in relative fluorescence	no response	did not generate the same increase in relative fluorescence	did not generate the same increase in relative fluorescence	did not generate the same increase in relative fluorescence	–	a decrease in licks/trial	–
Cc1ccc(C(C)(C)C)c(O)c1 [2-tert-butyl-5-methylphenol]	4 ± 2	generated an increase in relative fluorescence	background fluorescence	did not generate the same increase in relative fluorescence	did not generate the same increase in relative fluorescence	did not generate the same increase in relative fluorescence	–	–	–
O=CC=Cc1ccccc1 [cinnamaldehyde]	7	–	no change in activation	–	–	–	–	–	did not increase as much as
